Earlier results on one substance are cited in paper PMC12866175 (European journal of nuclear medicine and molecular imaging, 2021).

Data set [1] concerns NETs. The settings on record: cited from earlier work.
In data set [2] the test system is tumor. Conditions: human, in vivo; cited from earlier work.

As for [^177Lu]Lu-DOTA-TATE, in data set [1], the “patients achieving stable disease” value is given as 26–55%, the patients treatment refractory was 18–32% and the “time after starting treatment within which half progress” value is 2 to 3 years. Further, the “tumor residence time compared with [^177Lu]Lu-DOTATOC” value in data set [2] is reported as “greater tumor residence time”.
